Earlier results as cited in patent publication US20240307364A1, “GAS TRANSMISSION EMULSION FOR INTRAVENOUS ADMINISTRATION” (priority 2021, published 2024).
Read-outs that look alike come from different tables or passages of the source.

What was measured:
[1] = toxic or locally irritating properties of the detected impurity
[2] = 37° C.
[3] = measure of relative solubility of PFOC in lipids

For `CCOC(C)c1ccccc1` (single isomer, unassigned) [benzene, (1-ethoxyethyl)-], the “Toxicity, yes/no” value [1] is given as “yes”.
In the case of `FC1(F)C(F)(F)C(F)(F)C(F)(F)C(F)(F)C1(F)F` (single isomer, unassigned) [cyclohexane, dodecafluoro-], the “Toxicity, yes/no” value [1] is listed as “yes”.
In the case of `OCc1ccco1` (single isomer, unassigned) [furfurol], the “Toxicity, yes/no” value [1] is listed as “yes”.
In the case of `CCCCCO` (single isomer, unassigned) [pentanol], the “Toxicity, yes/no” value [1] is listed as “yes”.
For `FC(F)(F)C1(F)C(F)(F)C(F)(F)C(F)(F)C(F)(F)C1(F)F` (single isomer, unassigned) [perfluoro(methylcyclohexane)], the “Toxicity, yes/no” value [1] is listed as “no”.
In the case of `Cc1cc(O)n(Cc2ccccc2)c(=O)c1C#N` [1-benzyl-6-hydroxy-4-methyl-2(1H)-oxo-3-pyridinecarbonitrile], the “Toxicity, yes/no” value [1] is given as “yes”.
In the case of `CC1=NN(c2ccccc2)C(=O)C1` [3H-pyrazol-3-one, 2,4-dihydro-5-methyl-2-phenyl-], the “Toxicity, yes/no” value [1] is listed as “yes”.
In the case of `FC(F)(F)C(F)(F)C(F)(F)N1C(F)(F)C(F)(F)C(F)(F)C(F)(F)C1(F)C(F)(F)F` (stereo not drawn) [Perfluoro-1-propyl-2 methylpiperidine], the “P, vapor tension” value [2] is given as 19 mm Hg, the “TcrH (temperature at which equal volumes of PFOC and hexane are mixed together)” value (shortened to “TcrH”) [3] is given as 35 °C and the “t1/2, elimination half-life” value (elimination from an organism) is given as 24 days. The “Grade of clearance rate” value (in vivo) was “Fast”.
In the case of `FC1(F)C(F)(F)C(F)(F)C2(F)C(F)(F)C(F)(F)C(F)(F)C2(F)C1(F)F` (stereo not drawn) [Perfluorobicyclo[4.3.0]nonane], the “P, vapor tension” value [2] is given as 33 mm Hg, the “TcrH” value [3] is given as 13 °C and the “t1/2, elimination half-life” value (elimination from an organism) is given as 4 days. The “Grade of clearance rate” value (in vivo) was “Fast”.
In the case of `FC1(F)C(F)(F)C2(F)C(F)(F)C(F)(F)C(F)(F)C3(F)C(F)(F)C(F)(F)C(F)(C1(F)F)C23F` (stereo not drawn) [Perfluorodecahydroacenaphthene], the “P, vapor tension” value [2] is given as 2 mm Hg, the “TcrH” value [3] is given as 24 °C and the “t1/2, elimination half-life” value (elimination from an organism) is given as 7 days. The “Grade of clearance rate” value (in vivo) was “Fast”.
In the case of `FC1(F)C(F)(F)C(F)(F)C2(F)C(F)(F)C(F)(F)C(F)(F)C(F)(F)C2(F)C1(F)F` (stereo not drawn) [Perfluorodecalin (PFD), Perfluorodecalin], the “P, vapor tension” value [2] is given as 12 mm Hg, the “TcrH” value [3] is given as 22 °C and the “Grade of clearance rate” value (in vivo) is given as “Fast”.
In the case of `FC(F)(F)N1C(F)(F)C(F)(F)C(F)(C2(F)C(F)(F)C(F)(F)C(F)(F)C(F)(F)C2(F)F)C(F)(F)C1(F)F` [Perfluoromethylcyclohexylpiperidine], the “t1/2, elimination half-life” value (elimination from an organism) is given as 90 days and the “Grade of clearance rate” value (in vivo) is given as “Slow”.
In the case of `FC(F)(F)C(F)(F)C(F)(F)C(F)(F)C(F)(F)C(F)(F)C(F)(F)C(F)(F)Br` [Perfluorooctyl bromide (PFOB), Perfluorooctyl bromide], the “P, vapor tension” value [2] is listed as 10.5 mm Hg, the “TcrH” value [3] is listed as −20 °C and the “Grade of clearance rate” value (in vivo) is listed as “Fast”.
In the case of `FC(F)(F)C(F)(F)C(F)(F)C(F)(F)N(C(F)(F)C(F)(F)C(F)(F)C(F)(F)F)C(F)(F)C(F)(F)C(F)(F)C(F)(F)F` [Perfluorotributylamine (PFTBA), Perfluorotributylamine], the “P, vapor tension” value [2] is given as 1 mm Hg, the “TcrH” value [3] is given as 61 °C and the “t1/2, elimination half-life” value (elimination from an organism) is given as 400 to 900 days. The “Grade of clearance rate” value (in vivo) was “Slow”.
For `FC(F)(F)C(F)(F)C(F)(F)N(C(F)(F)C(F)(F)C(F)(F)F)C(F)(F)C(F)(F)C(F)(F)F` [Perfluorotripropylamine (PFTPA), Perfluorotripropylamine], the “P, vapor tension” value [2] is given as 17 mm Hg, the “TcrH” value [3] is given as 43 °C and the “t1/2, elimination half-life” value (elimination from an organism) is given as 65 days. For the same compound, the “Grade of clearance rate” value (in vivo) was “Slow”.
For `CCOC(=O)c1ccccc1` [benzoic acid ethyl ester], the “Toxicity, yes/no” value [1] is given as “yes”.
In the case of `CC1C=CCC(C)(C)C1` (stereo not drawn) [cyclohexene, 3,5,5-trimethyl-], the “Toxicity, yes/no” value [1] is given as “yes”.
In the case of `CC(C)COC(=O)c1ccccc1C(=O)OCC(C)C` [diisobutyl phthalate], the “Toxicity, yes/no” value [1] is given as “yes”.
For `COC(=O)c1ccccc1C(=O)OC` [dimethyl phthalate], the “Toxicity, yes/no” value [1] is listed as “no”.
In the case of `OCC(O)CO` [glycerol], the “Toxicity, yes/no” value [1] is given as “no”.
In the case of `Fc1ccc2ccccc2c1` [naphthalene, 2-fluoro-], the “Toxicity, yes/no” value [1] is listed as “yes”.
In the case of `c1ccc2ccccc2c1` [naphthalene], the “Toxicity, yes/no” value [1] is listed as “yes”.
For `CO/C(=N\O)c1ccccc1` [oxime-, methoxy-phenyl-], the “Toxicity, yes/no” value [1] is listed as “yes”.
For `FC(F)(F)N(C(F)(F)C(F)(F)C(F)(F)C(F)(F)F)C1(F)C(F)(F)C(F)(F)C(F)(C(F)(F)F)C(F)(F)C1(F)F` (stereo not drawn) [perfluoromethylbutyl(4-methylcyclohexyl)amine], the “Toxicity, yes/no” value [1] is listed as “no”.
In the case of `Cc1cc(Cc2cc(C)cc(C(C)(C)C)c2O)c(O)c(C(C)(C)C)c1` [phenol, 2,2′-methylenebis[6-(1,1-dimethylethyl)-4-methyl-], the “Toxicity, yes/no” value [1] is given as “yes”.
In the case of `CN(C)C(=S)N(C)C` [thiourea, tetramethyl-], the “Toxicity, yes/no” value [1] is given as “yes”.
For O-ethyl-methoxy-phenyl-oxime, the “Toxicity, yes/no” value [1] is given as “yes”.
For Perfluorodihexyl ether, the “P, vapor tension” value [2] is given as 2 mm Hg, the “TcrH” value [3] is given as 59 °C and the “t1/2, elimination half-life” value (elimination from an organism) is given as 500 days. For the same compound, the “Grade of clearance rate” value (in vivo) was “Slow”.
For “Perfluorodimethyladamantane [Perfluorodimethyladamantane (PFDMA)]”, the “TcrH” value [3] is given as 32 °C, the “Grade of clearance rate” value (in vivo) is given as “Fast” and the “t1/2, elimination half-life” value (in vivo) is given as 10 to 20 days.
